The source made the active and inactive calls. No cut-off for these calls is given here.
What was measured:
[1] = molecular target: T1, Transient receptor potential cation channel subfamily A member 1 (Homo sapiens, UniProt O75762); test: Inhibition of human TRPA1 expressed in HEK293 cells assessed as decrease in AITC-induced calcium influx at 30 uM preincubated for 6 mins followed by AITC addition measured for 1 min by Fluo-4 dye-based assay relative to resveratrol; type: cell-based
[2] = molecular target: T1, Transient receptor potential cation channel subfamily A member 1; test: Agonist activity at human TRPA1 expressed in HEK293 cells assessed as induction of calcium influx at 30 uM after 6 mins by Fluo-4 dye-based assay relative to AITC; type: cell-based; conditions: hek293, 0.1 h
[3] = molecular target: T1, Transient receptor potential cation channel subfamily A member 1; test: Inhibition of human TRPA1 expressed in HEK293 cells assessed as decrease in AITC-induced calcium influx at 3 uM preincubated for 6 mins followed by AITC addition measured for 1 min by Fluo-4 dye-based assay relative to control; type: cell-based
[4] = molecular target: T1, Transient receptor potential cation channel subfamily A member 1; test: Inhibition of human TRPA1 expressed in HEK293 cells assessed as decrease in AITC-induced calcium influx at 30 uM preincubated for 6 mins followed by AITC addition measured for 1 min by Fluo-4 dye-based assay relative to control; type: cell-based
[5] = molecular target: T1, Transient receptor potential cation channel subfamily A member 1; test: Agonist activity at human TRPA1 expressed in HEK293 cells assessed as induction of calcium influx at 30 uM after 6 mins by Fluo-4 dye-based assay; type: cell-based
[6] = molecular target: T1, Transient receptor potential cation channel subfamily A member 1; test: Inhibition of human TRPA1 expressed in HEK293 cells assessed as decrease in AITC-induced calcium influx preincubated for 6 mins followed by AITC addition measured for 1 min by Fluo-4 dye-based assay; type: cell-based
[7] = molecular target: T1, Transient receptor potential cation channel subfamily A member 1; test: Inhibition of human TRPA1 expressed in HEK293 cells assessed as decrease in AITC-induced calcium influx at 10 uM preincubated for 6 mins followed by AITC addition measured for 1 min by Fluo-4 dye-based assay relative to control; type: cell-based
[8] = molecular target: T1, Transient receptor potential cation channel subfamily A member 1; test: Inhibition of human TRPA1 expressed in HEK293 cells assessed as decrease in AITC-induced current response by whole cell patch clamp method; type: cell-based
[9] = molecular target: T1, Transient receptor potential cation channel subfamily A member 1; test: Inhibition of TRPA1 (unknown origin)
[10] = molecular target: T2, Transient receptor potential cation channel subfamily A member 1 (Rattus norvegicus, UniProt Q6RI86); test: Activation of TRPA1 in Sprague-Dawley rat DRG neuron assessed as induction of current response at -60 mV holding potential at 1 uM incubated for 30 secs by whole-cell patch-clamp assay; conditions: 0.5 min
T2 sequence (Q6RI86 whole entry): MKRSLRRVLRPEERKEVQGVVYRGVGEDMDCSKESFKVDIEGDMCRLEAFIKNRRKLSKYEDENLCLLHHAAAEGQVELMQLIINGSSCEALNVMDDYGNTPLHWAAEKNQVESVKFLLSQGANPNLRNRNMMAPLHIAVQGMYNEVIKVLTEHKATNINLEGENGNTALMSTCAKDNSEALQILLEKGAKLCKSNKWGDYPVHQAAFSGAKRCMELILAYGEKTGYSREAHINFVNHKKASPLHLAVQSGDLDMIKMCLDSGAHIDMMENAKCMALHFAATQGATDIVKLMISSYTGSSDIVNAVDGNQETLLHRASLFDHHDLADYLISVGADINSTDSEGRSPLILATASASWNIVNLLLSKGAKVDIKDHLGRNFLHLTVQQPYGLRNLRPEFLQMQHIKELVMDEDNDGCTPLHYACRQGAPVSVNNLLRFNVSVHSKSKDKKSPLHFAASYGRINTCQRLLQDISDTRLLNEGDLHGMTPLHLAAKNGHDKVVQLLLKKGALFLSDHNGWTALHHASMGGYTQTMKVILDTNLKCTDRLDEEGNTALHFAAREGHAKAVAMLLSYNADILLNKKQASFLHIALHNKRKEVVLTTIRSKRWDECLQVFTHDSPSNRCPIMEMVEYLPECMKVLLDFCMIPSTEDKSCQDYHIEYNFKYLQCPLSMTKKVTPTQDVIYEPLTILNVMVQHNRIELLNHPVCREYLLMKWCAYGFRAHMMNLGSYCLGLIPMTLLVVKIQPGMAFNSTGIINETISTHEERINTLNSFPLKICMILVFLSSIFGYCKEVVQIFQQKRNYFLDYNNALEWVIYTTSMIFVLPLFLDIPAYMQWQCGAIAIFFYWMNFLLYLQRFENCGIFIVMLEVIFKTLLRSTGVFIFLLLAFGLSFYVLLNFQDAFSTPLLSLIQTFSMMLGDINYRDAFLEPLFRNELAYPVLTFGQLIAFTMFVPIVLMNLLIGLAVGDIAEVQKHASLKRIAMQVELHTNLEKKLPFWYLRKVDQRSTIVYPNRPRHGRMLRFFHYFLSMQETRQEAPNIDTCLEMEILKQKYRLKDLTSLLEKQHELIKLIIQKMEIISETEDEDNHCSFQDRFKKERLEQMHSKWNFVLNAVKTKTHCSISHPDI

[11] = molecular target: T2, Transient receptor potential cation channel subfamily A member 1; test: Activation of TRPA1 in Sprague-Dawley rat DRG neuron assessed as induction of current response at -60 mV holding potential at 300 uM incubated for 30 secs by whole-cell patch-clamp assay; conditions: 0.5 min
[12] = molecular target: T1, Transient receptor potential cation channel subfamily A member 1; test: Desensitization of human TRPA1 expressed in HEK293 cells assessed as decrease in AITC-induced inward current response at -60 mV holding potential preincubated for 1 min followed by AITC induction for 1 min by whole-cell patch-clamp assay; type: cell-based
[13] = tested on: Rattus norvegicus; test: Antinociceptive activity in Sprague-Dawley rat assessed as decrease in paw-licking time at 2 mM administered intraplantarly for 5 mins followed by AITC addition measured for 5 mins; type: functional
[14] = tested on: HEK293; test: Induction of current response in HEK293 cells at 10 uM by whole-cell patch-clamp assay; type: cell-based; conditions: human, hek293, 10 µM
[15] = molecular target: T1, Transient receptor potential cation channel subfamily A member 1; test: Agonist activity at human TRPA1 expressed in HEK293 cells assessed as induction of inward current response by whole-cell patch-clamp assay; type: cell-based
[16] = molecular target: T1, Transient receptor potential cation channel subfamily A member 1; test: Agonist activity at human TRPA1 expressed in HEK293 cells assessed as induction of inward current response at 10 uM in presence of TRPA1 antagonist HC-030031 by whole-cell patch-clamp assay; type: cell-based; conditions: hek293, 10 µM
[17] = molecular target: T1, Transient receptor potential cation channel subfamily A member 1; test: Activation of human TRPA1 expressed in HEK293 cells assessed as induction of inward current response at -60 mV holding potential at 5 uM incubated for 1 min by whole-cell patch-clamp assay; type: cell-based; conditions: hek293, 1 min
[18] = molecular target: T2, Transient receptor potential cation channel subfamily A member 1; test: Activation of TRPA1 in Sprague-Dawley rat DRG neuron assessed as induction of current response at -60 mV holding potential at 30 uM incubated for 30 secs by whole-cell patch-clamp assay; conditions: 0.5 min
[19] = tested on: Rattus norvegicus; test: Induction of nocifensive behavior in Sprague-Dawley rat at 2 mM administered intraplantarly for 5 mins; conditions: in vivo, other, 2000 µM

T1 sequence (O75762 whole entry): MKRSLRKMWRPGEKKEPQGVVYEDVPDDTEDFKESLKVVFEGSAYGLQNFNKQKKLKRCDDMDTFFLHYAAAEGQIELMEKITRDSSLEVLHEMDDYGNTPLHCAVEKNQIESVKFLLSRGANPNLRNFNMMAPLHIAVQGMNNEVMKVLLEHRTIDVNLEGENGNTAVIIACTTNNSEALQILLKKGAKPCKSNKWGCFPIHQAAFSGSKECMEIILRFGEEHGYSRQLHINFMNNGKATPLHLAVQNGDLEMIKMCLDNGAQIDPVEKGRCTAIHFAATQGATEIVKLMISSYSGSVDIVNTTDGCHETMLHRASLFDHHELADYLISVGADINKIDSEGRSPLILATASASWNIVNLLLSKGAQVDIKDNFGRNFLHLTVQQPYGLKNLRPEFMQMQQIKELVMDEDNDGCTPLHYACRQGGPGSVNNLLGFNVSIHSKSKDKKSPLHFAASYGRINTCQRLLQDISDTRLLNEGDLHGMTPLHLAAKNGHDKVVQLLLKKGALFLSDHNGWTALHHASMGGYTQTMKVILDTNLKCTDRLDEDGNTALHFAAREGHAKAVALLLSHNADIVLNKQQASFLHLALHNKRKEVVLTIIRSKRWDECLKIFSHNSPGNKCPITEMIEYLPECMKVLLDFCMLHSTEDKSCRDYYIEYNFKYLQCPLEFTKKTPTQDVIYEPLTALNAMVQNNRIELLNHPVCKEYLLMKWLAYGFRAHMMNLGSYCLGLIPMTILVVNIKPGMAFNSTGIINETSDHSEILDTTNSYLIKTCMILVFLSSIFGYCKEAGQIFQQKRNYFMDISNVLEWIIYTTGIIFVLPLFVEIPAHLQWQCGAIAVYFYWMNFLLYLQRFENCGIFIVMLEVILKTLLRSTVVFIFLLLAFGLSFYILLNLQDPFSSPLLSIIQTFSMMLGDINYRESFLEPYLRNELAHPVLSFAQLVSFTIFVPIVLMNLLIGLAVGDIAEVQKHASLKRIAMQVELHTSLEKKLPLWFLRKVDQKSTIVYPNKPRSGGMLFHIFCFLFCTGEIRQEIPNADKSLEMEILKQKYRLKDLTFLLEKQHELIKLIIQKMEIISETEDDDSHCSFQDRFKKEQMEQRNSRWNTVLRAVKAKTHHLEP

Oc1cc(O)cc(/C=C/c2cccc3ccccc23)c1
fold change (FC) [1]: 1.1
fold change (FC) [2]: 0.3

Oc1ccc(/C=C/c2ccccc2)cc1 [(E)-4-STYRYLPHENOL]
fold change (FC) [1]: 0.1
fold change (FC) [2]: 0.4

CC(=O)Oc1ccc(/C=C/c2cc(OC(C)=O)cc(OC(C)=O)c2)cc1 [TRIACETYLRESVERATROL]
fold change (FC) [1]: 0.5
fold change (FC) [2]: 0.5

Oc1ccc(/C=C/c2cc(O)cc(O)c2)cc1 [RESVERATROL]
inhibition [3]: -3.8%
inhibition [4]: 37.5%
EC50 [5]: > 30 µM
IC50 [6]: > 30 µM
inhibition [7]: 2.5%
fold change (FC) [2]: 0.4
IC50 [8]: 0.75 µM

CCCOc1ccc(/C=C/c2cc(OCCC)cc(OCCC)c2)cc1
fold change (FC) [1]: -0.1
fold change (FC) [2]: 0.3

COc1cc(O)cc(/C=C/c2ccccc2)c1 [PINOSYLVIN METHYL ETHER]
fold change (FC) [1]: 0.6
fold change (FC) [2]: 0.7

Oc1ccc(/C=C/c2ccc(O)c(O)c2)cc1
fold change (FC) [1]: -0.3
fold change (FC) [2]: 0.4

Oc1ccccc1/C=C/c1ccccc1
inhibition [3]: -1.9%
inhibition [4]: -9.5%
EC50 [5]: > 10 µM
IC50 [6]: > 30 µM
inhibition [7]: -5%
fold change (FC) [1]: 1.1
fold change (FC) [2]: 0.6
IC50 [9]: 1.7 to 2.2 µM

CC(C)(C)/C=C/c1cc(O)cc(O)c1
fold change (FC) [1]: 0.8
fold change (FC) [2]: 0.3

COc1ccc(NC(=O)c2cc(O)cc(O)c2)cc1
inhibition [3]: -5.9%
inhibition [4]: 11.8%
EC50 [5]: > 30 µM
IC50 [6]: > 30 µM
inhibition [7]: -8.2%
fold change (FC) [1]: -0.4
fold change (FC) [2]: 0.3

Oc1cc(O)cc(/C=C/c2ccc(Cl)cc2)c1
inhibition [3]: 6.1%
inhibition [4]: 18.6%
EC50 [5]: > 30 µM
IC50 [6]: > 30 µM
inhibition [7]: 5.6%
fold change (FC) [1]: 0.5
fold change (FC) [2]: 0.3

COc1ccccc1/C=C/c1ccccc1
fold change (FC) [1]: 0.3
fold change (FC) [2]: 0.4
IC50 [9]: 1.7 to 2.2 µM

Oc1cc(O)cc(/C=C/c2ccc(OCc3ccccc3)cc2)c1
fold change (FC) [1]: 0.7
fold change (FC) [2]: 0.3

Oc1ccc(CCc2cc(O)cc(O)c2)cc1 [DIHYDRORESVERATROL]
EC50 [5]: > 30 µM
IC50 [6]: > 30 µM
inhibition [7]: 1.2%
fold change (FC) [1]: 1.2
fold change (FC) [2]: 0.4

COc1cc(/C=C/c2ccccc2)cc(OC)c1 [3,5-O-DIMETHYLPINOSYLVIN]
fold change (FC) [1]: 0.5
fold change (FC) [2]: 0.6

Oc1ccc(-c2cc(O)cc(O)c2)cc1
fold change (FC) [1]: 0.8
fold change (FC) [2]: 0.5

CCOc1ccc(/C=C/c2cc(O)cc(O)c2)cc1
fold change (FC) [1]: -0.2
fold change (FC) [2]: 0.3

CCCCCCOc1ccc(/C=C/c2cc(O)cc(O)c2)cc1
fold change (FC) [1]: 0.1
fold change (FC) [2]: 0.5

Oc1cc(O)cc(/C=C/c2cc(Br)c(O)c(Br)c2)c1
fold change (FC) [1]: 0.8
fold change (FC) [2]: 0.3

CCCOc1ccc(/C=C/c2cc(O)cc(O)c2)cc1
fold change (FC) [1]: 0.1
fold change (FC) [2]: 0.3

COc1cc(CNC(=O)CCCC/C=C/C(C)C)ccc1O [CAPSAICIN]
Activity [10]: Active

Clc1cc(Cl)cc(/C=C/c2ccccc2)c1
inhibition [4]: 8.4%
EC50 [5]: > 30 µM
IC50 [6]: > 30 µM
inhibition [7]: 6.2%
fold change (FC) [1]: 0.7
fold change (FC) [2]: 0.3

C=CCN=C=S [ALLYL ISOTHIOCYANATE]
Activity [11]: Active

Oc1cc(O)cc(/C=C/c2ccccc2)c1 [PINOSYLVIN]
fold change (FC) [1]: -0.1
fold change (FC) [2]: 0.4

COc1ccc(/C=C/c2cc(O)cc(O)c2)cc1 [RESVERATROL 4'-METHYL ETHER]
fold change (FC) [1]: 0.3
fold change (FC) [2]: 0.3

Oc1cc(O)cc(/C=C/C2CCCCC2)c1
fold change (FC) [1]: 0.5
fold change (FC) [2]: 0.3

Oc1cc(O)cc(/C=C/c2ccc(O)c(O)c2)c1 [PICEATANNOL]
fold change (FC) [1]: 0
fold change (FC) [2]: 0.3

Oc1cccc(/C=C/c2cc(O)cc(O)c2)c1
inhibition [4]: 1.4%
EC50 [5]: > 30 µM
IC50 [6]: > 30 µM
fold change (FC) [1]: 0.8
fold change (FC) [2]: 0.4

Oc1cc(O)cc(/C=C/c2ccccc2O)c1
fold change (FC) [1]: 0.6
fold change (FC) [2]: 0.4

O=C(Nc1ccc(O)cc1)c1cc(O)cc(O)c1
fold change (FC) [1]: -0.6
fold change (FC) [2]: 0.3

COc1ccc(/C=C/c2cc(OC)cc(OC)c2)cc1 [TRISMETHOXYRESVERATROL]
fold change (FC) [1]: 0.3
fold change (FC) [2]: 0.3

CCOc1ccc(/C=C/c2cc(OCC)cc(OCC)c2)cc1
fold change (FC) [1]: 0.4
fold change (FC) [2]: 0.4

Clc1ccc(/C=C/c2cc(Cl)cc(Cl)c2)cc1
inhibition [3]: 3%
inhibition [4]: 20.6%
EC50 [5]: > 30 µM
IC50 [6]: > 30 µM
inhibition [7]: 7.2%
fold change (FC) [1]: 0.8
fold change (FC) [2]: 0.3

Oc1cc(O)cc(/C=C/c2cc(O)c(O)c(O)c2)c1
fold change (FC) [1]: 0.4
fold change (FC) [2]: 0.3

Oc1cc(O)cc(/C=C/c2ccc(OCC3CCCCC3)cc2)c1
fold change (FC) [1]: -0.1
fold change (FC) [2]: 0.4

Oc1ccc(/C=C/c2cc(Br)c(O)c(Br)c2)cc1
inhibition [3]: 14%
inhibition [4]: 66.7%
EC50 [5]: > 10 µM
IC50 [6]: 16.1 µM
inhibition [7]: 37.3%
Activity [12]: Dose-dependent effect
Activity [13]: Active
fold change (FC) [1]: 1.4
fold change (FC) [2]: 0.5
Activity [14]: Non-Toxic
Activity [15]: Not Active
Activity [16]: Dose-dependent effect
Activity [17]: Active
Activity [18]: Active
Activity [19]: Non-Toxic

Clc1ccc(/C=C/c2ccccc2)cc1
fold change (FC) [1]: -0.2
fold change (FC) [2]: 0.3

Oc1cc(O)cc(/C=C/c2ccc3c(c2)OCO3)c1
fold change (FC) [1]: 0.6
fold change (FC) [2]: 0.3

COc1ccc(/C=C/c2cc(O)cc(O)c2)cc1OC [RHAPONTIGENIN]
fold change (FC) [1]: 0.4

COCOc1ccc(/C=C/c2cc(OCOC)cc(OCOC)c2)cc1
fold change (FC) [1]: 0.4
fold change (FC) [2]: 0.5
